Test results: article PMC3189276 (2011)

Biological target: human cannabinoid receptor 2 (hCB2R) (Homo sapiens, UniProt P34972)
Assay type: binding

Sequence of human cannabinoid receptor 2 (hCB2R) (P34972 whole entry): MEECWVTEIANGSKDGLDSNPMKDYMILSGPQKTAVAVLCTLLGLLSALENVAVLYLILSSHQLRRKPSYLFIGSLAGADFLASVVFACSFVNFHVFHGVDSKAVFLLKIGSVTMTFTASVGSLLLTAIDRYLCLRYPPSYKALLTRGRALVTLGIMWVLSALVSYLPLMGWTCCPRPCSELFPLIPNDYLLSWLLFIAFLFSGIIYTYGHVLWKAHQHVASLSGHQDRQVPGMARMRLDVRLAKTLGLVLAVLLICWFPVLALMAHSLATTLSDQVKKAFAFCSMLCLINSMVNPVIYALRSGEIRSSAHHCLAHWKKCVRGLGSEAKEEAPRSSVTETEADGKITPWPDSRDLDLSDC

CC(C)(CCCCCCN=C=S)c1cc(O)c2c(c1)OC(C)(C)[C@H]1CC[C@@H](CO)C[C@@H]21 [AM-841]
% (TMH6 covalently modified): ~ 75 % (TMH6 covalently modified)
